Measurements taken from the supplement of paper PMC10307832.

Assays:
Assay in all cases: relative viability (nuclei count vs DMSO), 5 days (fraction); higher = more cells survive
Nelarabine + Alpelisib = compound: COc1nc(N)nc2c1ncn2[C@@H]1O[C@H](CO)[C@@H](O)[C@@H]1O [Nelarabine] + Cc1nc(NC(=O)N2CCC[C@H]2C(N)=O)sc1-c1ccnc(C(C)(C)C(F)(F)F)c1 [Alpelisib] (partner 2 µM)
Outline: (§1)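 Relative viability was taken as the ratio of nuclei in treated wells to nuclei in vehicle wells. Lung cancer cell lines in 1536-well plates received compounds by pin tool one day after seeding, either one drug alone or a fixed anchor-drug dose plus five library-drug doses (not always all listed) in √10 steps. Nuclei were counted on 4× images after 5 days of treatment, and values are medians of duplicate plates.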

Adavosertib + AZD7762 = compound: C=CCn1c(=O)c2cnc(Nc3ccc(N4CCN(C)CC4)cc3)nc2n1-c1cccc(C(C)(C)O)n1 [Adavosertib] + NC(=O)Nc1cc(-c2cccc(F)c2)sc1C(=O)N[C@H]1CCCNC1 [AZD7762] (partner 0.2 µM)
Outline: as §1

Adavosertib + OSI-027 = compound: C=CCn1c(=O)c2cnc(Nc3ccc(N4CCN(C)CC4)cc3)nc2n1-c1cccc(C(C)(C)O)n1 [Adavosertib] + COc1cccc2cc(-c3nc([C@H]4CC[C@H](C(=O)O)CC4)n4ncnc(N)c34)[nH]c12 [OSI-027] (partner 0.5 µM)
Outline: as §1

Adavosertib + Tozasertib = compound: C=CCn1c(=O)c2cnc(Nc3ccc(N4CCN(C)CC4)cc3)nc2n1-c1cccc(C(C)(C)O)n1 [Adavosertib] + Cc1cc(Nc2cc(N3CCN(C)CC3)nc(Sc3ccc(NC(=O)C4CC4)cc3)n2)n[nH]1 [Tozasertib] (partner 0.1 µM)
Outline: as §1

Cell Line	relative viability (Nelarabine + Alpelisib; first compound 0.01 µM)	relative viability (Nelarabine + Alpelisib; first compound 0.03162 µM)	relative viability (Nelarabine + Alpelisib; first compound 0.1 µM)	relative viability (Nelarabine + Alpelisib; first compound 0.3162 µM)	relative viability (Nelarabine + Alpelisib; first compound 1 µM)	relative viability (Adavosertib + AZD7762; first compound 0.01 µM)	relative viability (Adavosertib + AZD7762; first compound 0.03162 µM)	relative viability (Adavosertib + AZD7762; first compound 0.1 µM)	relative viability (Adavosertib + AZD7762; first compound 0.3162 µM)	relative viability (Adavosertib + OSI-027; first compound 0.01 µM)	relative viability (Adavosertib + OSI-027; first compound 0.03162 µM)	relative viability (Adavosertib + OSI-027; first compound 0.1 µM)	relative viability (Adavosertib + OSI-027; first compound 0.3162 µM)	relative viability (Adavosertib + Tozasertib; first compound 0.01 µM)	relative viability (Adavosertib + Tozasertib; first compound 0.03162 µM)	relative viability (Adavosertib + Tozasertib; first compound 0.1 µM)	relative viability (Adavosertib + Tozasertib; first compound 0.3162 µM)
LXF-289	1.19	1.05	1.01	1.11	1.05	1.08	0.984	0.683	0.231	0.809	0.678	0.721	0.938	0.174	0.192	0.205	0.261
NCI-H727	0.683	0.572	0.632	0.625	0.571	0.636	0.406	0.445	0.394	0.599	0.546	0.523	0.575	0.674	0.504	0.546	0.641
NCI-H2085	1.06	0.992	0.94	1.01	1.02	0.995	0.909	0.731	0.409	0.857	0.808	0.689	0.87	0.738	0.788	0.956	0.799
A-427	0.851	1.06	1.11	1.07	1.05	0.692	0.4	0.327	0.231	0.472	0.411	0.481	0.268	0.175	0.186	0.219	0.164
LC-2-ad	0.959	0.825	0.937	0.734	0.928	0.792	0.846	0.817	0.62	0.834	0.94	0.892	0.694	0.478	0.419	0.445	0.442
LU99A	0.517	0.415	0.519	0.476	0.54	0.295	0.196	0.184	0.122	0.314	0.282	0.307	0.298	0.284	0.273	0.263	0.273
201T	1.06	1.02	0.968	1.03	1	0.615	0.537	0.471	0.267	0.667	0.734	0.669	0.666	0.91	0.999	1.01	0.979
NCI-H650	1.38	1.08	1	1.14	1.24	0.736	0.809	0.411	0.221	0.476	0.606	0.526	0.446	0.75	0.774	0.806	0.757
LK-2	1.58		1.13	1.12	1.04	0.29	0.374	0.236	0.168	0.17	0.208	0.207	0.216	0.172	0.2	0.171	0.19
BEN	1.53	0.95	1.1	1.06	1.08	0.571	0.622	0.632	0.451	0.293	0.333	0.297	0.273	0.598	0.474	0.494	0.629
EPLC-272H	0.986	0.932	1.03	0.926	0.808	0.161	0.151	0.127	0.135	0.31	0.279	0.242	0.208	0.281	0.315	0.197	0.277
NCI-H1975	0.785	0.489	0.73	0.773	0.764	0.713	0.677	0.663	0.641	0.733	0.644	0.606	0.493	0.842	0.794	0.835	0.525
HCC-827	0.999	0.848	0.839	0.784	0.595	0.196	0.166	0.179	0.15	0.779	0.832	0.738	0.724	0.402	0.415	0.46	0.437
LCLC-97TM1	0.277	0.211	0.216	0.212	0.26	0.289	0.264	0.138	0.0845	0.484	0.459	0.584	0.49	0.22	0.245	0.195	0.383
NCI-H2126	0.875	0.81	0.779	0.744	0.774	0.962	1.03	0.949	0.788	0.569	0.697	0.769	0.727	0.808	0.834	0.863	0.924
PC-14	0.857	0.97	1.02	1.04	0.947	0.261	0.289	0.224	0.0765	0.916	0.835	0.846	0.114	0.6	0.566	0.843	0.69
